# According to US20260256728A1, “TREATMENT FOR ASYMPTOMATIC STARGARDT DISEASE PATIENTS” (priority 2024, published 2026):
# System: atrophic retinal lesions in Stargardt disease patients
# Assay: TEASE-1 growth rate of atrophic retinal lesions by fundus autofluorescence imaging
# Type: in vivo, human
# Set-up: relative slower growth rate of atrophic retinal lesions versus control / Percentage Slowing of Atrophic Retinal Lesion Growth Rate: concentration or dose not given beside the values
# Experimental: The Tolerability and Effects of gildeuretinol acetate in Stargardt Disease (Clinical trial group 1, also known as TEASE-1) was a 24-month, multicenter, double-masked, placebo-controlled trial designed to evaluate the efficacy and safety of daily oral gildeuretinol acetate in slowing the growth of atrophic retinal lesions in Stargardt disease patients. The trial was conducted at multiple sites in the United States (NCT02402660).
# Patients 12 years or older, clinically diagnosed with Stargardt disease, with at least one ABCA4 mutation, at least one eye presenting with well-demarcated areas of reduced fundus autofluorescence including retinal atrophic lesions, and with any visual acuity, were enrolled.
# Patients were randomized to gildeuretinol acetate 14 mg capsules, gildeuretinol acetate 24 mg capsules, or placebo capsules, to be taken once daily for one year. After one year, 50% of randomly selected patients receiving placebo were crossed over in a 1:1 ratio to gildeuretinol acetate 14 mg capsules or gildeuretinol acetate 24 mg capsules for a second year.
# Deidentified retinal images of patients not enrolled in the trial were included as a natural history cohort. This natural history cohort comprised patients diagnosed with Stargardt disease of any age, with two or more longitudinal fundus autofluorescence images taken at least four months apart over a maximum period of 2.5 years.
# […] retinal imaging comparing gildeuretinol acetate versus the untreated arm ([…]). Only well-delineated and homogeneous retinal atrophic lesions ≥0.2 mm^2 with a summed area ≥0.5 mm^2 were included in the primary analysis.
# The primary endpoint analysis used a linear mixed-effect model (LMEM) with repeated measures, conferring a higher power to detect smaller effects. All observed data, including both eyes, were utilized. Treatment duration was computed as a continuous measure for each visit based on years since randomization. Adjustments for baseline retinal atrophy used the baseline atrophic retinal lesion size as a fixed effect in the LMEM. Additional fixed effects included treatment arm, treatment duration, and interaction between the treatment arm and treatment duration. Random effects included patient, eye, grader to adjust for correlation between eyes within a patient, graders' assessment of an eye, and observations of the same eye over time. A random effect slope term was added to the effect of treatment duration. Patients who crossed over to gildeuretinol acetate after year one were included in the untreated arm from baseline to year one, then in the gildeuretinol acetate arm from […] upon crossing over to gildeuretinol acetate. The full analysis set (FAS) comprised all randomized patients who received at least one dose of the study drug.
# […] All available data between 0 and 24 months was used to compute the slope of each segment. The primary efficacy endpoint was the slope of the second segment. No constraints were imposed on the Y-intercept. All growth rates were calculated on a per-year basis.
# No imputations were made for missing data because the LMEM yields valid inferences under the assumption of a missing-at-random mechanism. The two-sided P-value of the primary efficacy endpoint was calculated using Kenward-Roger's method for handling denominator degrees of freedom and small samples. The goodness of fit of the linear mixed-effect model was provided as R-squared (R^2). Analyses were conducted in R (R Core Team, 2020). Prespecified, unadjusted sensitivity analyses of the primary efficacy endpoint included growth rates of untransformed areas of retinal atrophy and growth rates using a single-slope from baseline until the last available visit. Post-hoc unadjusted analyses were performed to evaluate the potential contribution of patient characteristics.
structure (smiles),measurement,setting,value
"[2H]C([2H])([2H])C(/C=C/C=C(C)/C=C/C1=C(C)CCCC1(C)C)=C\CO [Gildeuretinol, C20D3-retinol]",Percentage Slowing of Atrophic Retinal Lesion Growth Rate,Crossover patients: 12 months placebo vs. 12 months treatment,21%
same,Percentage Slowing of Atrophic Retinal Lesion Growth Rate,"Excluding 2 natural history cases <18 years old, 9 natural histories >60 years old",21%
same,Percentage Slowing of Atrophic Retinal Lesion Growth Rate,Excluding 3 randomized patients with one confirmed mutation,20%
same,Percentage Slowing of Atrophic Retinal Lesion Growth Rate,Excluding 13 natural history cases without any confirmed ABCA4 mutations and 6 natural histories with one confirmed mutation,20%
same,Percentage Slowing of Atrophic Retinal Lesion Growth Rate,Excluding 16 natural histories with only two follow up time points,20%
same,Percentage Slowing of Atrophic Retinal Lesion Growth Rate,"Excluding natural history, randomized patients only, one slope (mm^2)",30%
same,Percentage Slowing of Atrophic Retinal Lesion Growth Rate,"Excluding natural history, randomized patients only, two slopes (mm^2)",23%
same,Percentage Slowing of Atrophic Retinal Lesion Growth Rate,Using a single-slope from 0 to 24 months (mm^2),31%
same,Percentage Slowing of Atrophic Retinal Lesion Growth Rate,Using untransformed areas of atrophic lesions (mm^2),28%
